Laboratory results from patent US20060058966A1, “Methods and systems for guiding selection of chemotherapeutic agents” (priority 2004, published 2006).

How the values were obtained:
Format in all cases: cell-based, human
[1] = system: tumor of patient suffering from ovarian cancer; experiment: ATP-TCA assay of tumor samples of patient one; details: for Initial Therapeutic Index: tumor response curves ranked by AUC-1, high index = more effective
Description: Briefly, the ATP-TCA assay is conducted as follows. First, aseptically obtained solid tumor specimens are dispersed using, e.g. surgical scissors and scalpels. Subsequently, tissue fragments of 0.5 to 2 mm in diameter are enzymatically dissociated into a cell suspension of single cells and small aggregates by incubation for 4-18 h in 5-10 ml sterile collagenase-containing enzyme preparation such as tumor dissociation enzyme preparation, TDE. Commercially available from Atlantic Scientific, Fort Lauderdale, Fla., or from DCS Innovative Diagnostic Systeme GmbH, Hamburg, Germany. Alternatively, tissue fragments are dissociated using 1.5 mg/ml collagenase H (Sigma Chemical, St. Lewis, Mo.) or by mechanical desegregation. (see, […] al., 1997, Anticancer Drugs, 8:756-762) After filtration and ficoll-hypaque density centrifugation, e.g. (Lymphoprep®, ICN Flow, […], Germany; Histopaque, Sigma Chemical, St. […] A serum-free Complete Assay medium (CAM) available from DCS Innovative Diagnostik Systeme GmbH, Hamburg, Germany is added and cell suspensions then are adjusted to a final concentration of 1-2×10^5 viable cells per ml. […] Test drug concentrations (TDC) are prepared directly on the plates by serial 1:2-dilutions of the individual stock solutions. […] Appropriate controls, e.g., one with CAM, i.e., no inhibition control, (MO) and the other with Maximum ATP Inhibitor (MI) instead of the cytostatics, can be used in six wells of every culture plate. Subsequently, a sample, e.g. 100 μl of single cell suspension (i.e., 10,000- 20,000 cells) is added to each well. Cultures are incubated at 37° C. and 95% humidity in a 95% air, 5% CO2 atmosphere. After 5-7 days of incubation, another cytological analysis is performed in untreated MO controls. Subsequently, intracellular ATP is extracted and stabilized. Then 50 μl aliquots of each lysate is then transferred to a liminometer, e.g. a LB-953 liminometer (Berthold, Wildbad, Germany). ATP is measured, e.g. by the “firefly” light reaction after automatically pipetting 55 μl of Luciferin-Luciferase-Reagent (Lu-Lu) to each cell extract. Luminescence response expressed as Relative Light Units (RLU=photons/10) is counted for 10 seconds with a 4 second delay. An ATP standard curve is performed for all assays. […] End assays are also sampled for pathology, proof that the final wells after treatment contain tumor not benign cells. The following illustrates assignment of a Preliminary Rank or Order to a drug(s) or agent(s) based on the results of ATP-TCA assays of patient tumors presented in representative FIGS. 4A-C. All ATP-TCA assays were conducted as described previously herein in detail (see also, e.g., Andreotti et al., 1995, Cancer Res. 55:5276-82; Kurbacher et al., 1996, Breast Cancer Res. Treat., 41:161-70). FIG. 4A illustrates assay results were obtained with samples of a tumor of patient […] suffering from ovarian cancer. The results of an ATP-TCA assay are graphically presented (FIG. 4A) as a plot of (TDC) Test Drug Concentration (%) versus Tumor Growth Inhibition (%) (i.e., ATP test activity/ATP control×100%). (Carboplatin is abbreviated in FIGS. 4A-B as CBDCA.) The tumor response curves presented in FIG. 4A are ranked as described herein as if they were reference data. The numerical measure used is the AUC-I test. […] Alternative, the range from the least to the greatest response can be divided into 10 segments and the curves are assigned to their corresponding segments.

[2] = system: tumor of patient also suffering from ovarian cancer; experiment: ATP-TCA assay of tumor samples of patient two; details: for Initial Therapeutic Index: indexed as for patient one
Description: Briefly, the ATP-TCA assay is conducted as follows. First, aseptically obtained solid tumor specimens are dispersed using, e.g. surgical scissors and scalpels. Subsequently, tissue fragments of 0.5 to 2 mm in diameter are enzymatically dissociated into a cell suspension of single cells and small aggregates by incubation for 4-18 h in 5-10 ml sterile collagenase-containing enzyme preparation such as tumor dissociation enzyme preparation, TDE. Commercially available from Atlantic Scientific, Fort Lauderdale, Fla., or from DCS Innovative Diagnostic Systeme GmbH, Hamburg, Germany. Alternatively, tissue fragments are dissociated using 1.5 mg/ml collagenase H (Sigma Chemical, St. Lewis, Mo.) or by mechanical desegregation. (see, e.g., Myatt et al., 1997, Anticancer Drugs, 8:756-762) After filtration and ficoll-hypaque density centrifugation, e.g. (Lymphoprep®, ICN Flow, Meckenheim, Germany; Histopaque, Sigma Chemical, St. Louis, Mo.), the quality and viability of resultant single cell suspensions are determined e.g., by trypan blue dye exclusion (0.2% Merck, Darmstadt, Germany) and by subsequent cytological examination. A serum-free Complete Assay medium (CAM) available from DCS Innovative Diagnostik Systeme GmbH, Hamburg, Germany is added and cell suspensions then are adjusted to a final concentration of 1-2×10^5 viable cells per ml.
Drug assays can be performed in 96-well polypropylene microtiter plates (round-bottom). Test drug concentrations (TDC) are prepared directly on the plates by serial 1:2-dilutions of the individual stock solutions. Each drug is tested by continuous exposure in triplicate at a number, e.g., six different concentrations ranging from 6.25% to 200% of test drug concentration.
Subsequently, a sample, e.g. 100 μl of single cell suspension (i.e., 10,000- 20,000 cells) is added to each well. Cultures are incubated at 37° C. and 95% humidity in a 95% air, 5% CO2 atmosphere.
After 5-7 days of incubation, another cytological analysis is performed in untreated MO controls. Subsequently, intracellular ATP is extracted and stabilized. Then 50 μl aliquots of each lysate is then transferred to a liminometer, e.g. a LB-953 liminometer (Berthold, Wildbad, Germany). ATP is measured, e.g. by the “firefly” light reaction after automatically pipetting 55 μl of Luciferin-Luciferase-Reagent (Lu-Lu) to each cell extract. Luminescence response expressed as Relative Light Units (RLU=photons/10) is counted for 10 seconds with a 4 second delay. An ATP standard curve is performed for all assays. MO should be greater than 100 pg/ml ATP. Assays showing mean RLU values of less than 20,000 (MO), a MI/MO-ratio>0.01, or evidence of microbiological contamination are regarded as non-evaluable. End assays are also sampled for pathology, proof that the final wells after treatment contain tumor not benign cells.
All ATP-TCA assays were conducted as described previously herein in detail (see also, e.g., Andreotti et al., 1995, Cancer Res. 55:5276-82; Kurbacher et al., 1996, Breast Cancer Res. Treat., 41:161-70).

[3] = system: tumor of a pancreatic cancer patient; experiment: ATP-TCA assay of tumor samples of a pancreatic cancer patient; details: pancreatic cancer sample
Description: Briefly, the ATP-TCA assay is conducted as follows. First, aseptically obtained solid tumor specimens are dispersed using, e.g. surgical scissors and scalpels. Subsequently, tissue fragments of 0.5 to 2 mm in diameter are enzymatically dissociated into a cell suspension of single cells and small aggregates by incubation for 4-18 h in 5-10 ml sterile collagenase-containing enzyme preparation such as tumor dissociation enzyme preparation, TDE. Commercially available from Atlantic Scientific, Fort Lauderdale, Fla., or from DCS Innovative Diagnostic Systeme GmbH, Hamburg, Germany. Alternatively, tissue fragments are dissociated using 1.5 mg/ml collagenase H (Sigma Chemical, St. Lewis, Mo.) or by mechanical desegregation. […] A serum-free Complete Assay medium (CAM) available from DCS Innovative Diagnostik Systeme GmbH, Hamburg, Germany is added and cell suspensions then are adjusted to a final concentration of 1-2×10^5 viable cells per ml. […] Test drug concentrations (TDC) are prepared directly on the plates by serial 1:2-dilutions of the individual stock solutions. […] Subsequently, a sample, e.g. 100 μl of single cell suspension (i.e., 10,000- 20,000 cells) is added to each well. Cultures are incubated at 37° C. and 95% humidity in a 95% air, 5% CO2 atmosphere. After 5-7 days of incubation, another cytological analysis is performed in untreated MO controls. Subsequently, intracellular ATP is extracted and stabilized. Then 50 μl aliquots of each lysate is then transferred to a liminometer, e.g. a LB-953 liminometer (Berthold, Wildbad, Germany). ATP is measured, e.g. by the “firefly” light reaction after automatically pipetting 55 μl of Luciferin-Luciferase-Reagent (Lu-Lu) to each cell extract. Luminescence response expressed as Relative Light Units (RLU=photons/10) is counted for 10 seconds with a 4 second delay. An ATP standard curve is performed for all assays. MO should be greater than 100 pg/ml ATP. […] End assays are also sampled for pathology, proof that the final wells after treatment contain tumor not benign cells. […] All ATP-TCA assays were conducted as described previously herein in detail (see also, e.g., Andreotti et al., 1995, Cancer Res. 55:5276-82; Kurbacher et al., 1996, Breast Cancer Res. Treat., 41:161-70).

Structure (SMILES)	activity against this patient's tumor [1]	Initial Therapeutic Index [1]	activity against this patient's tumor [2]	Initial Therapeutic Index [2]	Initial Therapeutic Index [3]	activity against this tumor [3]
N.N.O=C([O-])C1(C(=O)[O-])CCC1.[Pt+2] [Carboplatin]	single best drug	10	at best moderately active	5		
N.N.[Cl][Pt][Cl] [DDP, cisplatin]					2	not significantly active
Nc1ccn([C@@H]2O[C@H](CO)[C@@H](O)C2(F)F)c(=O)n1 [Gemcitabine, gemcitabine]	not significantly active	3	at best moderately active	3	3	not significantly active
CC(=O)O[C@H]1C(=O)[C@@]2(C)[C@H]([C@H](OC(=O)c3ccccc3)[C@]3(O)C[C@H](OC(=O)[C@H](O)[C@@H](NC(=O)c4ccccc4)c4ccccc4)C(C)=C1C3(C)C)[C@]1(OC(C)=O)CO[C@@H]1C[C@@H]2O [Taxol, paclitaxel]	not significantly active	2	single best drug	8		
